For one data set, the target named is T1, human FSH receptor (Homo sapiens, UniProt P23945).
T1 construct: expressed in transfected cells
T1 sequence (P23945 18-695): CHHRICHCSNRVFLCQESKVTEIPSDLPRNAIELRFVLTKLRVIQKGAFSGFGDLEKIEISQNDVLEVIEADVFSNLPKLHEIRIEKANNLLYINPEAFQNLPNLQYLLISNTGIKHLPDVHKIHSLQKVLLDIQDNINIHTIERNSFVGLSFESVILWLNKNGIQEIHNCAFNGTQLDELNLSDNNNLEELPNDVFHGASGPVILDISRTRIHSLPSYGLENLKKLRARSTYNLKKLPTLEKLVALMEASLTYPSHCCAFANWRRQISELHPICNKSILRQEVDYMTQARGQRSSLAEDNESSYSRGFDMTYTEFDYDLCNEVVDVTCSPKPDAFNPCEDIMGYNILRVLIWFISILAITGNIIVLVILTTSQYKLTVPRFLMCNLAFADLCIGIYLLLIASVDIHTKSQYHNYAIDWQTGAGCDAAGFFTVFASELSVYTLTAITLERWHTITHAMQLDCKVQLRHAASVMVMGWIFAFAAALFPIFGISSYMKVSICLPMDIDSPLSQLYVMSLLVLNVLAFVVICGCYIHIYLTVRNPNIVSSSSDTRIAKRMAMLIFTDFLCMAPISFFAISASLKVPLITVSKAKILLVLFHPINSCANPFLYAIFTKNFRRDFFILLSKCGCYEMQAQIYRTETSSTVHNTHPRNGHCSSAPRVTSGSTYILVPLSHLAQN
As to the kind of experiment: hFSHRago (CHO luc): agonistic activity at the human FSH receptor expressed in CHO cells, CRE-luciferase reporter. In kind it is cell-based. The note with it: CHO cells stably transfected with human FSH receptor and CRE/luciferase reporter; 4 hours of incubation.

Drawing on patent publication US8394789B2, “(Dihydro)pyrrolo[2,1-α]isoquinolines” (MSD Oss B.V., priority 2008, dated 2013), this text covers EC50 and melting point for 24 compounds.

Text for human FSH receptor: The term EC50 means the concentration of the test compound that elicits half-maximal (50%) stimulation compared to the compound's maximally attainable effect. The values can be determined e.g. in a cell line transfected with a FSH receptor gene and cotransfected with a cAMP responsive element/promoter directing the expression of a reporter gene. Values can be determined using the software program such as MathIQ (version 2.0, ID Business Solutions Limited).
Agonistic activity of the compounds at the human FSH receptor was determined in Chinese Hamster Ovary (CHO) cells stably transfected with the human FSH receptor and cotransfected with a cAMP responsive element (CRE)/promoter directing the expression of a firefly luciferase reporter gene. […] Cells (7,500 cells/well of a 384 well plate) were incubated in Dulbecco' minimal essential F12 modified medium (Invitrogen), supplemented with 1 μg/ml bovine insulin, 5 μg/ml human apo-transferrin, 80 U/ml penicillin G and 80 μg/ml streptomycin with the test compounds (concentration between 0.0316 nM and 10.0 μM) in duplicate in a humidified atmosphere (95%) at 5-7% CO2 and 37° C. The final concentration of DMSO was 1%. After 4 hours of incubation, plates were allowed to adjust to room temperature for 1 hour. Then, Luclite (PerkinElmer) solution was added to the wells and cells were allowed to lyse for at least 1 hour at room temperature. Subsequently, luciferase activity was measured in a luminescence counter. The signal is expressed as counts per second (cps). The EC50 (concentration of the test compound that elicits half-maximal (50%) luciferase stimulation compared to the compound's maximally attainable effect) and efficacy values (maximal effect of the test compound as percentage of the maximal effect of recombinant human FSH) of the compounds were determined using the software program MathIQ (version 2.0, ID Business Solutions Limited).

What is called EC50 is the concentration needed to bring the measured effect to its halfway point. Lower therefore signals greater potency. A word on the melting point: it is the temperature, or range, at which the solid turns liquid. As to `COc1cc2c(cc1OC(C)C)-c1c(-c3cccs3)cc(C(=O)N3CCCN(C(C)=O)CCC3)n1CC2` [Example 16, 1-[5-(9-Isopropoxy-8-methoxy-1-thiophen-2-yl-5,6-dihydro-pyrrolo[2,1-α]isoquinoline-3-carbonyl)-[1,5]diazocan-1-yl]-ethanone], the melting point lay within 153 to 155 °C. Further, the EC50 on human FSH receptor came to 5 nM.
For `COc1cc2c(cc1OC(C)C)-c1c(-c3cccs3)cc(C(=O)N3CC4CC(C3)c3cccc(=O)n3C4)n1CC2` (stereo not drawn) [Example 18, 3-(9-Isopropoxy-8-methoxy-1-thiophen-2-yl-5,6-dihydro-pyrrolo[2,1-α]isoquinoline-3-carbonyl)-1,2,3,4,5,6-hexahydro-1,5-methano-pyrido[1,2-α][1,5]diazocin-8-one], in that order: 260 °C and 37.3 nM.
For `COc1cc2c(cc1OC(C)C)-c1c(-c3cccs3)cc(C(=O)N3CC4CC(C3)C3CCCC(=O)N3C4)n1CC2` (stereo not drawn) [Example 19, 3-(9-Isopropoxy-8-methoxy-1-thiophen-2-yl-5,6-dihydro-pyrrolo[2,1-α]isoquinoline-3-carbonyl)-decahydro-1,5-methano-pyrido[1,2-α][1,5]diazocin-8-one], in that order: 207 to 208 °C and 29.4 nM.
For `COc1cc2c(cc1OC(C)C)-c1c(-c3cccs3)cc(C(=O)N3C[C@H]4C[C@@H](NC(C)=O)C[C@H]4C3)n1CC2` [Example 25, N-[-2-(9-isopropoxy-8-methoxy-1-thiophen-2-yl-5,6-dihydro-pyrrolo[2,1-α]isoquinoline-3-carbonyl)-octahydro-cyclopenta[c]pyrrol-5-endo-yl]-acetamide], in that order: 106 to 112 °C and 45.4 nM.
Turning to `COc1cc2c(cc1OC(C)C)-c1c(-c3cccs3)cc(C(=O)N(C)C(C)(C)CO)n1CC2` [Example 30, 9-Isopropoxy-8-methoxy-1-thiophen-2-yl-5,6-dihydro-pyrrolo[2,1-α]isoquinoline-3-carboxylic acid (2-hydroxy-1,1-dimethyl-ethyl)-methyl-amide], the melting point was in the range of 150 to 152 °C. On human FSH receptor, this compound had a concentration giving a half-maximal response (EC50) of 1 nM.
For `COc1cccc(Oc2cc3c(cc2OC)CCn2c(C(=O)N(C)C(C)(C)C)cc(-c4cccs4)c2-3)c1` [Example 74, N-tert-butyl-8-methoxy-9-(3-methoxyphenoxy)-N-methyl-1-(thiophen-2-yl)-5,6-dihydropyrrolo[2,1-α]isoquinoline-3-carboxamide], in that order: 176 to 177 °C and 203 nM.
For `COc1cc2c(cc1Oc1cccc(F)c1)-c1c(-c3cccs3)cc(C(=O)N(C)C(C)(C)C)n1CC2` [Example 75, 9-(3-Fluoro-phenoxy)-8-methoxy-1-thiophen-2-yl-5,6-dihydro-pyrrolo[2,1-α]isoquinoline-3-carboxylic acid tert-butyl-methyl-amide], in that order: 158 to 159 °C and 16.3 nM.
As for `COc1cc2c(cc1Oc1ncccn1)-c1c(-c3cccs3)cc(C(=O)N(C)C(C)(C)C)n1CC2` [Example 76, N-tert-butyl-8-methoxy-N-methyl-9-(pyrimidin-2-yloxy)-1-(thiophen-2-yl)-5,6-dihydro-pyrrolo[2,1-α]isoquinoline-3-carboxamide], the melting point is 164 to 165 °C. For the same compound, the response at human FSH receptor was half-maximal at 18.9 nM (EC50).
For `COc1cc2c(cc1CCC(C)(C)O)-c1c(-c3cccs3)cc(C(=O)N(C)C(C)(C)C)n1CC2` [Example 92, 9-(3-Hydroxy-3-methyl-butyl)-8-methoxy-1-thiophen-2-yl-5,6-dihydro-pyrrolo[2,1-α]isoquinoline-3-carboxylic acid tert-butyl-methyl-amide], in that order: 153 to 154 °C and 6 nM.
For `COc1cc2c(cc1NC(=O)c1cccnc1)-c1c(-c3cccs3)cc(C(=O)N(C)C(C)(C)C)n1CC2` [Example 102, 8-Methoxy-9-[(pyridine-3-carbonyl)-amino]-1-thiophen-2-yl-5,6-dihydro-pyrrolo[2,1-α]isoquinoline-3-carboxylic acid tert-butyl-methyl-amide], in that order: 223 to 224 °C and 13 nM.
Take `CCOc1cc2c(cc1OC)CCn1c(C(=O)N(CC)C(C)C)c(C(C)=O)c(-c3cccs3)c1-2` [Example 112, 2-Acetyl-9-ethoxy-8-methoxy-1-thiophen-2-yl-5,6-dihydro-pyrrolo[2,1-α]isoquinoline-3-carboxylic acid ethyl-isopropyl-amide]: the response on human FSH receptor was half-maximal at 200 nM (EC50).
Same read-out and setting: the value for `COc1cc2c(cc1OC(F)F)-c1c(-c3nccs3)cc(C(=O)N(C)C(C)(C)C)n1CC2` [Example 113, 9-Difluoromethoxy-8-methoxy-1-thiazol-2-yl-5,6-dihydro-pyrrolo[2,1-α]isoquinoline-3-carboxylic acid tert-butyl-methyl-amide] was 39.6 nM; that for `CCN(C(=O)c1cc(-c2cccs2)c2n1CCc1c-2cc(OC)c(OC)c1C)C(C)C` [Example 114, 8,9-Dimethoxy-7-methyl-1-thiophen-2-yl-5,6-dihydro-pyrrolo[2,1-α]isoquinoline-3-carboxylic acid ethyl-isopropyl-amide] was 321 nM; that for `CCN(C(=O)c1cc(-c2cccs2)c2n1CCc1c-2cc(OC)c(OC)c1F)C(C)C` [Example 115, 7-Fluoro-8,9-dimethoxy-1-thiophen-2-yl-5,6-dihydro-pyrrolo[2,1-α]isoquinoline-3-carboxylic acid ethyl-isopropyl-amide] was 937 nM.
Still for that read-out and setting: the value for `CCN(C(=O)c1cc(-c2ccsc2)c2n1CCc1cc(OC)c(OC)c(F)c1-2)C(C)C` [Example 116, 10-Fluoro-8,9-dimethoxy-1-thiophen-3-yl-5,6-dihydro-pyrrolo[2,1-α]isoquinoline-3-carboxylic acid ethyl-isopropyl-amide] was 318 nM; that for `CCN(C(=O)c1cc(-c2ccsc2)c2n1CCc1cc(Br)c(OC)cc1-2)C(C)C` [Example 117, 8-Bromo-9-methoxy-1-thiophen-3-yl-5,6-dihydro-pyrrolo[2,1-α]isoquinoline-3-carboxylic acid ethyl-isopropyl-amide] was 1100 nM.
In turn, `COc1cc2c(cc1OC)-c1c(-c3ccc(F)cc3F)cc(C(=O)N(C)C(C)(C)C)n1CC2` [Example 118, 1-(2,4-Difluoro-phenyl)-8,9-dimethoxy-5,6-dihydro-pyrrolo[2,1-α]isoquinoline-3-carboxylic acid tert-butyl-methyl-amide] returned a 50% effective concentration (EC50) on human FSH receptor of 48.3 nM.
Still for that read-out and setting: the value for `CCOC(=O)CN(C)C(=O)c1cc(-c2ccsc2)c2n1CCc1cc(OC)c(OC)cc1-2` [Example 119c, [(8,9-Dimethoxy-1-thiophen-3-yl-5,6-dihydro-pyrrolo[2,1-α]isoquinoline-3-carbonyl)-methyl-amino]-acetic acid ethyl ester] was 42 nM; that for `COc1cc2c(cc1OC)-c1c(-c3ccsc3)cc(C(=O)N(C)CC(=O)N(C)CC(C)C)n1CC2` [Example 119e, 8,9-dimethoxy-1-thiophen-3-yl-5,6-dihydro-pyrrolo[2,1-α]isoquinoline-3-carboxylic acid [(isobutyl-methyl-carbamoyl)-methyl]-methyl-amide] was 1080 nM.
Same read-out and setting: the value for `COc1cc2c(c(OC)c1)-c1c(-c3ccsc3)cc(C(=O)N(C)C(C)(C)C)n1CC2` [Example 120, 8,10-Dimethoxy-1-thiophen-3-yl-5,6-dihydro-pyrrolo[2,1-α]isoquinoline-3-carboxylic acid tert-butyl-methyl-amide] was 699 nM.
Still for that read-out and setting: the value for `COc1cc2c(cc1CO)-c1c(-c3cccs3)cc(C(=O)N(C)C(C)(C)C)n1CC2` [Example 121a, 9-Hydroxymethyl-8-methoxy-1-thiophen-2-yl-5,6-dihydro-pyrrolo[2,1-α]isoquinoline-3-carboxylic acid tert-butyl-methyl-amide] was 10 nM; that for `COCc1cc2c(cc1OC)CCn1c(C(=O)N(C)C(C)(C)C)cc(-c3cccs3)c1-2` [Example 121b, 8-Methoxy-9-methoxymethyl-1-thiophen-2-yl-5,6-dihydro-pyrrolo[2,1-α]isoquinoline-3-carboxylic acid tert-butyl-methyl-amide] was 1.6 nM.
As to `COc1cc2c(cc1C(C)=O)-c1c(-c3cccs3)cc(C(=O)N3CCCC3(C)C)n1CC2` [Example 122, 1-[3-(2,2-Dimethyl-pyrrolidine-1-carbonyl)-8-methoxy-1-thiophen-2-yl-5,6-dihydro-pyrrolo[2,1-α]isoquinolin-9-yl]-ethanone], the concentration giving a half-maximal response (EC50) on human FSH receptor was 2 nM.
Compound `COc1cc2c(cc1C(=O)Nc1nncs1)-c1c(-c3cccs3)cc(C(=O)N(C)C(C)(C)C)n1CC2` [Example 123, 8-Methoxy-1-thiophen-2-yl-5,6-dihydro-pyrrolo[2,1-α]isoquinoline-3,9-dicarboxylic acid 3-(tert-butyl-methyl-amide) 9-[1,3,4]thiadiazol-2-ylamide] gave a melting point of 149 to 152 °C. Moreover, on human FSH receptor, it took 1 nM to reach a half-maximal effect (EC50).
